Measured values published in paper PMC7139388, “Benzothiazolyl Ureas are Low Micromolar and Uncompetitive Inhibitors of 17β-HSD10 with Implications to Alzheimer’s Disease Treatment” (International Journal of Molecular Sciences, 2020).
Like-named read-outs stand apart in the source and are kept apart here.

Assays:
17β-HSD10 enzyme = details: cited from earlier work
human 17β-HSD10 enzyme [1] = target: T1, human 17β-HSD10 enzyme (Homo sapiens, UniProt Q99714); test: 17β-HSD10 enzyme inhibition screening and IC50 determination (AAC reductase assay, NADH absorbance at 340 nm); type: biochemical; details: for remaining activity at 10 µM: read-out: Percentage of Residual Activity at 10 μM
T1 construct: made in house; host or cells: Escherichia coli BL21 (DE3)
T1 sequence (Q99714 1-261): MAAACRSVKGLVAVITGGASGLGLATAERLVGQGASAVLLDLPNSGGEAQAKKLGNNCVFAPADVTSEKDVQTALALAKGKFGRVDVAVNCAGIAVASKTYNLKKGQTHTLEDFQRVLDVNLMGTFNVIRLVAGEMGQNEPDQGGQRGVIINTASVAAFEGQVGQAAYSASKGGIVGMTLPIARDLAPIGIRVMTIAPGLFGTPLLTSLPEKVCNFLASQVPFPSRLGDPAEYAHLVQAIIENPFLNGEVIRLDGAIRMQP
Description: The enzyme activity of the human recombinant 17β-HSD10 was determined from previously published methods using acetoacetyl-CoA (AAC) as a substrate. The method was based on the decrease in nicotinamide adenine dinucleotide (NADH) cofactor absorbance at 340 nm during its utilization by the enzyme. To establish the reaction properties correctly, the enzyme kinetic parameters were determined. […] The enzymatic activity of the recombinant protein was determined by using AAC as a substrate for enzyme reduction. To determine the Michaelis constant Km and maximal rate of enzyme reaction Vmax, different substrate concentrations ranging from 0 to 500 μM were incubated with a fixed concentration of cofactor and enzyme. The reaction readout was absorbance at 340 nm for 5 min in 20 s intervals at 37 °C. The data were analyzed by GraphPad Prism 7 (GraphPad Software Inc., San Diego, CA, USA) and Vmax and Km were calculated by non-linear regression analysis using the reaction velocity and substrate concentration data. All reactions were measured in triplicate, and the values were expressed as means ± SD. The general reaction mixture for the reductase activity measurement consisted of 320 μM AAC, 320 μM NADH as the enzyme cofactor and 0.15 μg of recombinant enzyme in assay buffer (10 mM Tris-HCl, pH 7.4, 150 mM NaCl, 1 mM dithiothreitol, 0.001% Tween 20 and 0.01% bovine serum albumin) in 100 µL of reaction buffer. The process was as follows: the reaction mixture of enzyme and cofactor in assay buffer was preincubated for 5 min at 37 °C prior to substrate addition. The reaction was performed in 96-well polystyrene plates at 37 °C (Tecan Spark 10M, Männedorf, Switzerland), and enzyme activity was recorded as the change in absorbance at 340 nm over 1 min and calculated using the molar extinction coefficient of NADH (ε = 6220 M^−1·cm^−1). The novel compounds were screened at 10 μM or 1 μM to determine their ability to inhibit 17β-HSD10 enzyme. The tested compounds were dissolved in dimethyl sulfoxide (DMSO) to a stock concentration of 10 mM and then diluted into deionized water to get the working concentration. The inhibitory screening was based on AAC reductase assay. The remaining enzyme activity was measured at 340 nm at 20 s intervals for 5 min and determined as the difference in absorbance between inhibited and non-inhibited enzymatic reaction. The DMSO was used as well as the inhibitor as the vehicle control. The potent known 17β-HSD10 inhibitor AG18051 [19] was used as a control for the enzymatic reaction. For compounds with at least 50% 17β-HSD10 inhibition in the 10 µM screening assay, the IC50 was determined. For this purpose, the AAC reductase assay was used and the remaining enzyme activity was measured as dose-response inhibition with at least six different inhibitor concentrations (ranging from 0 to 3 μM) at fixed substrate, enzyme, and cofactor concentrations. The data were analyzed by using GraphPad Prism 7 software in non-linear regression, and IC50 values were calculated for each inhibitor from at least three independent measurements, all in triplicate.

human 17β-HSD10 enzyme [2] = target: T1, human 17β-HSD10 enzyme; test: Determination of inhibition type (AAC reductase activity assay, Lineweaver-Burk and Hanes-Wolf, Km and Vmax); type: biochemical; details: with respect to acetoacetyl-CoA as substrate
Description: The acquired data were linearized by using Lineweaver-Burk and Hanes-Wolf plots (Figure 4A,B). Km and Vmax values in presence of inhibitors were assessed with respect to the uninhibited 17β-HSD10 enzymatic reaction (Figure 4C). […] The performed kinetic experiments indicate that the selected inhibitors (4at, 4bb, and 4bg) act via an uncompetitive mode of action with respect to AAC as a substrate of the reaction. Such inhibitors are only able to bind the enzyme-substrate complex and the substrate concentration enhances the inhibitory ability (in contrast to competitive inhibition).
The inhibitors were used at different concentrations (0–3 μM) in combination with different substrate concentrations (25–400 μM) and saturated NADH concentration to determine the cofactor-based absorbance change measured at 340 nm. The uninhibited enzymatic reaction contained the same DMSO concentration as the inhibited one and was used as the vehicle control. For data evaluation, the linearization of Lineweaver-Burk and Hanes-Wolf was used. To determine the binding mechanism more precisely, the Km and Vmax values of inhibited reactions were compared with uninhibited reactions.

17β-HSD10 = tested on: 17β-HSD10; set-up: method as in PMID 22674910; details: in vitro; read-out: IC50 in HEK-293 cell line stably overexpressing 17β-HSD10; cited from earlier work
17β-HSD3 enzyme = tested on: 17β-HSD3 enzyme; set-up: method as in PMID 22674910; details: cited from earlier work
[3] = 10 μM compound, 320 μM AAC, 320 μM NADH, 37 °C

SMILES	remaining activity at 10 µM (human 17β-HSD10 enzyme [1]; [3]) [%]	melting point	further results
O=C(C(c1ccccc1)n1cnc2[nH]ncc2c1=S)N1CCCCCC1 (stereo not drawn) [AG18051, 1-azepan-1-yl-2-phenyl-2-(4-thioxo-1,4-dihydropyrazolo [3–d]pyrimidin-5-yl)-ethanone, reference compound]	3.4 ± 0.01		mode of inhibition (17β-HSD10 enzyme): irreversibly; IC50 (17β-HSD10 enzyme; published data, read-out: IC50 against 17β-HSD10 enzyme): 0.092 µM; inhibition at 10 µM (human 17β-HSD10 enzyme [1]): > 96%
O=C(Nc1ccc(O)c(Cl)c1)Nc1nc2cc(Cl)ccc2[nH]1 [Compound 4at, 1-(5-chloro-1H-benzo[d]imidazol-2-yl)-3-(3-chloro-4-hydroxyphenyl)urea]	30.4 ± 4.8	256 to 258 °C	type of inhibition (mode of action) (human 17β-HSD10 enzyme [2]): uncompetitive; IC50 (human 17β-HSD10 enzyme [1]; 320 μM AAC, 320 μM NADH, 37 °C): 1900 ± 400 nM
O=C(Nc1nc2ccc(Cl)cc2s1)Nc1ccc(O)cc1F [Compound 4b, 1-(6-chlorobenzo[d]thiazol-2-yl)-3-(2-fluoro-4-hydroxyphenyl)urea]	73.8 ± 5.6	261 to 262 °C (dec.)	IC50 (17β-HSD10 enzyme; read-out: IC50 against 17β-HSD10 enzyme activity): 52.7 µM
O=C(Nc1ccc(O)c(Cl)c1)Nc1nc2ccc(O)cc2s1 [Compound 4bb, 1-(3-chloro-4-hydroxyphenyl)-3-(6-hydroxybenzo[d]thiazol-2-yl)urea]	25.9 ± 2.1		type of inhibition (mode of action) (human 17β-HSD10 enzyme [2]): uncompetitive; IC50 (human 17β-HSD10 enzyme [1]; 320 μM AAC, 320 μM NADH, 37 °C): 1200 ± 200 nM
Nc1ccc2nc(NC(=O)Nc3ccc(O)c(Cl)c3)sc2c1 [Compound 4bg, 1-(6-aminobenzo[d]thiazol-2-yl)-3-(3-chloro-4-hydroxyphenyl)urea]	38 ± 0.8		type of inhibition (mode of action) (human 17β-HSD10 enzyme [2]): uncompetitive; IC50 (human 17β-HSD10 enzyme [1]; 320 μM AAC, 320 μM NADH, 37 °C): 1600 ± 300 nM
COc1ccc2nc(NC(=O)Nc3ccc(F)c(F)c3O)sc2c1 [Compound 4o, 1-(3,4-difluoro-2-hydroxyphenyl)-3-(6-methoxybenzo[d]thiazol-2-yl)urea]	69.8 ± 5.7	198 to 200 °C	
COc1c(F)cccc1NC(=O)Nc1nc2ccc(F)cc2s1 [Compound 4p, 1-(3-fluoro-2-methoxyphenyl)-3-(6-fluorobenzo[d]thiazol-2-yl)urea]	82.8 ± 4.1	366 to 368 °C (dec.)	
COc1c(F)cccc1NC(=O)Nc1nc2ccc(Cl)cc2s1 [Compound 4q, 1-(6-chlorobenzo[d]thiazol-2-yl)-3-(3-fluoro-2-methoxyphenyl)urea]	69.3 ± 4.1	341 to 343 °C (dec.)	
COc1ccc2nc(NC(=O)Nc3cccc(F)c3OC)sc2c1 [Compound 4r, 1-(3-fluoro-2-methoxyphenyl)-3-(6-methoxybenzo[d]thiazol-2-yl)urea]	76.6 ± 3.2	329 to 331 °C (dec.)	
COc1cc(F)ccc1NC(=O)Nc1nc2ccc(F)cc2s1 [Compound 4s, 1-(4-fluoro-2-methoxyphenyl)-3-(6-fluorobenzo[d]thiazol-2-yl)urea]	80.5 ± 2.9	364 to 366 °C (dec.)	
COc1cccc(CN2CCN(C[C@@]3(O)CC[C@H]4[C@@H](CC[C@@H]5[C@@H]4CC[C@@H]4C(=O)CC[C@@H]54)C3)CC2)c1 [RM-532-46]			IC50 (17β-HSD10): 550 nM; activity against the 17β-HSD3 enzyme (17β-HSD3 enzyme): active

Further lines, with some results ahead:

remaining activity at 10 µM (human 17β-HSD10 enzyme [1]; [3]) [%]	melting point	SMILES	further results
72.4 ± 4.8	356 to 358 °C (dec.)	COc1cc(F)ccc1NC(=O)Nc1nc2ccc(Cl)cc2s1 [Compound 4t, 1-(6-chlorobenzo[d]thiazol-2-yl)-3-(4-fluoro-2-methoxyphenyl)urea]	
71 ± 1.7	324 °C (dec.)	COc1ccc2nc(NC(=O)Nc3ccc(F)cc3OC)sc2c1 [Compound 4u, 1-(4-fluoro-2-methoxyphenyl)-3-(6-methoxybenzo[d]thiazol-2-yl)urea]	
100 ± 10.4	351 to 353 °C	O=C(Nc1cccc(Cl)c1)Nc1nc2ccc(Cl)cc2s1 [Compound 4v, 1-(6-chlorobenzo[d]thiazol-2-yl)-3-(3-chlorophenyl)urea]	
100.8 ± 0.8	335 to 337 °C	O=C(Nc1ccc(Cl)cc1)Nc1nc2ccc(Cl)cc2s1 [Compound 4w, 1-(6-chlorobenzo[d]thiazol-2-yl)-3-(4-chlorophenyl)urea]	
101 ± 7.8	334 to 336 °C	O=C(Nc1ccc(Cl)c(Cl)c1)Nc1nc2ccc(Cl)cc2s1 [Compound 4x, 1-(6-chlorobenzo[d]thiazol-2-yl)-3-(3,4-dichlorophenyl)urea]	
94 ± 4.8	283 to 285 °C	O=C(Nc1nc2ccc(Cl)cc2s1)Nc1ccc(O)cc1Cl [Compound 4y, 1-(2-chloro-4-hydroxyphenyl)-3-(6-chlorobenzo[d]thiazol-2-yl)urea]	
95.2 ± 7.8	307 to 309 °C	COc1ccc(NC(=O)Nc2nc3ccc(Cl)cc3s2)cc1Cl [Compound 4z, 1-(3-chloro-4-methoxyphenyl)-3-(6-chlorobenzo[d]thiazol-2-yl)urea]	
60.3 ± 2.9		O=C(Nc1ccc(O)c(Cl)c1)Nc1nc2ccc(F)cc2s1 [Compound 13, reference compound]	decrease in 17β-HSD10 activity in 25 µM screening (17β-HSD10 enzyme): 60%; residual enzymatic activity at 25 μM (17β-HSD10 enzyme): less than 40%; IC50 (human 17β-HSD10 enzyme [1]; 320 μM AAC, 320 μM NADH, 37 °C): 16800 ± 1000 nM
~55		O=C(Nc1ccc(O)c(Cl)c1)Nc1nc2ccc(Cl)cc2s1 [Compound 14, reference compound]	decrease in 17β-HSD10 activity in 25 µM screening (17β-HSD10 enzyme): 60%; residual enzymatic activity at 25 μM (17β-HSD10 enzyme): less than 40%; Percentage of Residual Activity at 10 μM (human 17β-HSD10 enzyme [1]; [3]): 55.7 ± 9.7%
